Where a name gives a salt, the structure may show the parent alone.
Columns and labels:
NMDA receptor = conditions: dose producing the anti-NMDA effect; cited from earlier work
[1] = disturbance of coordination of movement and a sedative effect; cited from earlier work
[2] = tested on: acute EAE murine model of MS; assay: Acute EAE murine model (MOG-induced), clinical score over 35 days; type: in vivo, female C57BL/6J mice

| Compound | ED50 of anti-NMDA effect (NMDA receptor) [mg/kg] | adverse effects at doses producing the anti-NMDA effect [1] | activity (average clinical score) compared to the vehicle-only treatment group (1F) ([2]; 1.0 mg/kg IP once daily from study day 0, 35-day study, n = 10) | activity (average clinical score) compared to the vehicle-only treatment group (1F) ([2]; 10.0 mg/kg IP once daily (group 5F), at the end of the study) | activity (average clinical score) compared to the vehicle-only treatment group (1F) ([2]; 10.0 mg/kg IP once daily (group 5F), intermediate time points, days 26 and 27) |
| --- | --- | --- | --- | --- | --- |
| NC(CCCP(=O)(O)O)C(=O)O (centres unmarked) [AP5, 2-amino-5-phosphonovaleric acid] | 190 | neurotoxic effects | – | – | – |
| Cc1ccc2c(c1)c1c(n2CCc2ccc(C)nc2)CCN(C)C1 [Dimebon, 2,8-dimethyl-5-(2-(6-methyl-3-pyridyl)ethyl)-2,3,4,5-tetrahydro-1H-pyrido[4,3-b]indole dihydrochloride] | – | – | statistically significant | not statistically significant | statistically significant |

Source: patent US20110195049A1, “COMPOSITIONS AND METHODS FOR TREATING MULTIPLE SCLEROSIS” (BIOVISTA, INC., priority 2008, published 2011)
